In PubChem BioAssay AID1963840 (Molecular Pharmacology Branch, DTP, NCI, 2024):

Tested on: 695427-040-R-J1-PDC complex spheroid viability
Experiment: Anticancer human tumor 695427-040-R-J1-PDC patient-derived colon adenocarcinoma cell line growth inhibition [POLQ]
Settings: for IC50: curve of first compound; for viability, T/C: stronger effect = lower value
In short: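 Complex spheroid viability model combining PDC tumour cells with endothelial (HUVEC) and MSC stromal cells. Novobiocin, ART-558 or RP6685 were tested singly and in combination with standard and investigational anticancer drugs. Each was titrated in half-log steps from near clinical Cmax, or from 10 microM where Cmax was unknown.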

[1] = second compound 0.0316 µM, first compound 0.0316 µM
[2] = second compound 0.0316 µM, first compound 0.1 µM
[3] = second compound 0.0316 µM, first compound 0.316 µM
[4] = second compound 0.0316 µM, first compound 1 µM
[5] = second compound 0.0316 µM, first compound 3.16 µM
[6] = second compound 0.0316 µM, first compound 10 µM
[7] = second compound 0.1 µM, first compound 0.0316 µM
[8] = second compound 0.1 µM, first compound 0.1 µM
[9] = second compound 0.1 µM, first compound 0.316 µM
[10] = second compound 0.1 µM, first compound 1 µM
[11] = second compound 0.1 µM, first compound 3.16 µM
[12] = second compound 0.1 µM, first compound 10 µM
[13] = second compound 0.316 µM, first compound 0.0316 µM
[14] = second compound 0.316 µM, first compound 0.1 µM
[15] = second compound 0.316 µM, first compound 0.316 µM
[16] = second compound 0.316 µM, first compound 1 µM
[17] = second compound 0.316 µM, first compound 3.16 µM
[18] = second compound 0.316 µM, first compound 10 µM
[19] = second compound 1 µM, first compound 0.0316 µM
[20] = second compound 1 µM, first compound 0.1 µM
[21] = second compound 1 µM, first compound 0.316 µM
[22] = second compound 1 µM, first compound 1 µM
[23] = second compound 1 µM, first compound 3.16 µM
[24] = second compound 1 µM, first compound 10 µM
[25] = second compound 3.16 µM, first compound 0.0316 µM
[26] = second compound 3.16 µM, first compound 0.1 µM
[27] = second compound 3.16 µM, first compound 0.316 µM
[28] = second compound 3.16 µM, first compound 1 µM
[29] = second compound 3.16 µM, first compound 3.16 µM
[30] = second compound 3.16 µM, first compound 10 µM
[31] = second compound 10 µM, first compound 0.0316 µM
[32] = second compound 10 µM, first compound 0.1 µM
[33] = second compound 10 µM, first compound 0.316 µM
[34] = second compound 10 µM, first compound 1 µM
[35] = second compound 10 µM, first compound 3.16 µM
[36] = second compound 10 µM, first compound 10 µM
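Note: spheroids exposed to compounds for seven days.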
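Throughout, for viability, T/C: 100% = DMSO vehicle control viability.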

CC1COCCN1c1cc(C2(S(C)(=N)=O)CC2)nc(-c2ccnc3[nH]ccc23)n1 (stereo not drawn) + COC1C(OC(N)=O)C(O)C(Oc2ccc3c(O)c(NC(=O)c4ccc(O)c(CC=C(C)C)c4)c(=O)oc3c2C)OC1(C)C
IC50 (second compound 0.0316 µM): > 10 µM | IC50 (second compound 0.1 µM): > 10 µM | IC50 (second compound 0.316 µM): > 10 µM | IC50 (second compound 1 µM): > 10 µM | IC50 (second compound 3.16 µM): > 10 µM | IC50 (second compound 10 µM): > 10 µM | viability, T/C [1]: 96.3% | viability, T/C [2]: 101% | viability, T/C [3]: 101% | viability, T/C [4]: 101% | viability, T/C [5]: 93.9% | viability, T/C [6]: 86% | viability, T/C [7]: 124% | viability, T/C [8]: 89.4% | viability, T/C [9]: 104% | viability, T/C [10]: 96.8% | viability, T/C [11]: 97.6% | viability, T/C [12]: 80.8% | viability, T/C [13]: 104% | viability, T/C [14]: 89.7% | viability, T/C [15]: 101% | viability, T/C [16]: 101% | viability, T/C [17]: 101% | viability, T/C [18]: 81.7% | viability, T/C [19]: 104% | viability, T/C [20]: 105% | viability, T/C [21]: 102% | viability, T/C [22]: 99.3% | viability, T/C [23]: 107% | viability, T/C [24]: 86.5% | viability, T/C [25]: 94.1% | viability, T/C [26]: 90.7% | viability, T/C [27]: 99.7% | viability, T/C [28]: 97.1% | viability, T/C [29]: 107% | viability, T/C [30]: 85.9% | viability, T/C [31]: 104% | viability, T/C [32]: 102% | viability, T/C [33]: 102% | viability, T/C [34]: 97.7% | viability, T/C [35]: 102% | viability, T/C [36]: 79%

CCCS(=O)(=O)Nc1ccc(F)c(C(=O)c2c[nH]c3ncc(-c4ccc(Cl)cc4)cc23)c1F + COC1C(OC(N)=O)C(O)C(Oc2ccc3c(O)c(NC(=O)c4ccc(O)c(CC=C(C)C)c4)c(=O)oc3c2C)OC1(C)C
IC50 (second compound 0.0316 µM): > 10 µM | IC50 (second compound 0.1 µM): > 10 µM | IC50 (second compound 0.316 µM): > 10 µM | IC50 (second compound 1 µM): > 10 µM | IC50 (second compound 3.16 µM): > 10 µM | IC50 (second compound 10 µM): > 10 µM | viability, T/C [1]: 102% | viability, T/C [2]: 102% | viability, T/C [3]: 98.2% | viability, T/C [4]: 111% | viability, T/C [5]: 116% | viability, T/C [6]: 80.7% | viability, T/C [7]: 103% | viability, T/C [8]: 94.3% | viability, T/C [9]: 108% | viability, T/C [10]: 111% | viability, T/C [11]: 107% | viability, T/C [12]: 78.6% | viability, T/C [13]: 106% | viability, T/C [14]: 98.1% | viability, T/C [15]: 97% | viability, T/C [16]: 105% | viability, T/C [17]: 118% | viability, T/C [18]: 88.7% | viability, T/C [19]: 102% | viability, T/C [20]: 108% | viability, T/C [21]: 102% | viability, T/C [22]: 109% | viability, T/C [23]: 107% | viability, T/C [24]: 81.7% | viability, T/C [25]: 110% | viability, T/C [26]: 107% | viability, T/C [27]: 100% | viability, T/C [28]: 106% | viability, T/C [29]: 109% | viability, T/C [30]: 79.4% | viability, T/C [31]: 107% | viability, T/C [32]: 102% | viability, T/C [33]: 91.8% | viability, T/C [34]: 113% | viability, T/C [35]: 116% | viability, T/C [36]: 77%

CNCc1ccc(-c2[nH]c3cc(F)cc4c3c2CCNC4=O)cc1 + COC1C(OC(N)=O)C(O)C(Oc2ccc3c(O)c(NC(=O)c4ccc(O)c(CC=C(C)C)c4)c(=O)oc3c2C)OC1(C)C
IC50 (second compound 0.0316 µM): > 10 µM | IC50 (second compound 0.1 µM): > 10 µM | IC50 (second compound 0.316 µM): > 10 µM | IC50 (second compound 1 µM): > 10 µM | IC50 (second compound 3.16 µM): > 10 µM | IC50 (second compound 10 µM): > 10 µM | viability, T/C [1]: 94.5% | viability, T/C [2]: 96.1% | viability, T/C [3]: 108% | viability, T/C [4]: 99.7% | viability, T/C [5]: 112% | viability, T/C [6]: 103% | viability, T/C [7]: 108% | viability, T/C [8]: 95.1% | viability, T/C [9]: 107% | viability, T/C [10]: 103% | viability, T/C [11]: 112% | viability, T/C [12]: 111% | viability, T/C [13]: 101% | viability, T/C [14]: 99.8% | viability, T/C [15]: 94.5% | viability, T/C [16]: 96.8% | viability, T/C [17]: 115% | viability, T/C [18]: 105% | viability, T/C [19]: 97.6% | viability, T/C [20]: 95% | viability, T/C [21]: 105% | viability, T/C [22]: 103% | viability, T/C [23]: 112% | viability, T/C [24]: 115% | viability, T/C [25]: 101% | viability, T/C [26]: 99.3% | viability, T/C [27]: 108% | viability, T/C [28]: 93.2% | viability, T/C [29]: 117% | viability, T/C [30]: 103% | viability, T/C [31]: 98.1% | viability, T/C [32]: 91.8% | viability, T/C [33]: 106% | viability, T/C [34]: 109% | viability, T/C [35]: 114% | viability, T/C [36]: 113%

COc1cccc(OCCCN)c1-c1cc(Nc2cnc(C#N)cn2)n[nH]1 + COC1C(OC(N)=O)C(O)C(Oc2ccc3c(O)c(NC(=O)c4ccc(O)c(CC=C(C)C)c4)c(=O)oc3c2C)OC1(C)C
IC50 (second compound 0.0316 µM): 0.386 µM | IC50 (second compound 0.1 µM): 0.535 µM | IC50 (second compound 0.316 µM): 0.46 µM | IC50 (second compound 1 µM): 0.391 µM | IC50 (second compound 3.16 µM): 0.449 µM | IC50 (second compound 10 µM): 0.465 µM | viability, T/C (second compound 0.0316 µM, first compound 0.00316 µM): 103% | viability, T/C (second compound 0.0316 µM, first compound 0.01 µM): 94.2% | viability, T/C [1]: 81.1% | viability, T/C [2]: 70.2% | viability, T/C [3]: 50.3% | viability, T/C [4]: 39.7% | viability, T/C (second compound 0.1 µM, first compound 0.00316 µM): 109% | viability, T/C (second compound 0.1 µM, first compound 0.01 µM): 84.2% | viability, T/C [7]: 81% | viability, T/C [8]: 69.7% | viability, T/C [9]: 56% | viability, T/C [10]: 42.2% | viability, T/C (second compound 0.316 µM, first compound 0.00316 µM): 101% | viability, T/C (second compound 0.316 µM, first compound 0.01 µM): 93% | viability, T/C [13]: 85% | viability, T/C [14]: 73.1% | viability, T/C [15]: 54% | viability, T/C [16]: 39.2% | viability, T/C (second compound 1 µM, first compound 0.00316 µM): 102% | viability, T/C (second compound 1 µM, first compound 0.01 µM): 93.7% | viability, T/C [19]: 83.7% | viability, T/C [20]: 66.3% | viability, T/C [21]: 53.9% | viability, T/C [22]: 38.1% | viability, T/C (second compound 3.16 µM, first compound 0.00316 µM): 107% | viability, T/C (second compound 3.16 µM, first compound 0.01 µM): 95.1% | viability, T/C [25]: 86.3% | viability, T/C [26]: 67.2% | viability, T/C [27]: 56.3% | viability, T/C [28]: 38.7% | viability, T/C (second compound 10 µM, first compound 0.00316 µM): 100% | viability, T/C (second compound 10 µM, first compound 0.01 µM): 84.9% | viability, T/C [31]: 81.1% | viability, T/C [32]: 68.9% | viability, T/C [33]: 55.2% | viability, T/C [34]: 39.8%
